Results on 15 compounds are retold here after patent publication US4457936A, “Use of hydroxyphenyl-thiazole-, -thiazoline- and -thiazolidine-carboxylic acids, for influencing the collagen metabolism” (Hoechst Aktiengesellschaft, priority 1980, dated 1984).

One assay has as its target prolyl hydroxylase (Homo sapiens, UniProt P13674). Briefly: enzyme test, hydroxylation of insufficiently hydroxylated collagen by prolyl hydroxylase (cell-free). In kind it is biochemical. From the text:
(§1) The inhibiting effect of the substances in accordance with the invention on collagen biosynthesis can be examined in an enzyme test analogous to the method of B. Peterkofsky and R. DiBlasio [Anal. Biochem. 66, 279-286 (1975)]. In this test, insufficiently hydroxylated collagen is enzymatically hydroxylated in the presence of molecular oxygen, iron-II ions, alpha-ketoglutaric and ascorbic acid.
(§2) As enzymes, prolyl hydroxylase or lysyl hydroxylase can be used and applied in a cell-free medium. The effect of the substances of the invention can be measured furthermore in cell and tissue cultures.
(§3) The inhibiting effect (DI50) is that concentration at which the enzyme reaction is inhibited by 50%.

For another assay, the target named is T1, lysyl hydroxylase (Homo sapiens, UniProt Q02809).
T1 sequence (Q02809 19-727): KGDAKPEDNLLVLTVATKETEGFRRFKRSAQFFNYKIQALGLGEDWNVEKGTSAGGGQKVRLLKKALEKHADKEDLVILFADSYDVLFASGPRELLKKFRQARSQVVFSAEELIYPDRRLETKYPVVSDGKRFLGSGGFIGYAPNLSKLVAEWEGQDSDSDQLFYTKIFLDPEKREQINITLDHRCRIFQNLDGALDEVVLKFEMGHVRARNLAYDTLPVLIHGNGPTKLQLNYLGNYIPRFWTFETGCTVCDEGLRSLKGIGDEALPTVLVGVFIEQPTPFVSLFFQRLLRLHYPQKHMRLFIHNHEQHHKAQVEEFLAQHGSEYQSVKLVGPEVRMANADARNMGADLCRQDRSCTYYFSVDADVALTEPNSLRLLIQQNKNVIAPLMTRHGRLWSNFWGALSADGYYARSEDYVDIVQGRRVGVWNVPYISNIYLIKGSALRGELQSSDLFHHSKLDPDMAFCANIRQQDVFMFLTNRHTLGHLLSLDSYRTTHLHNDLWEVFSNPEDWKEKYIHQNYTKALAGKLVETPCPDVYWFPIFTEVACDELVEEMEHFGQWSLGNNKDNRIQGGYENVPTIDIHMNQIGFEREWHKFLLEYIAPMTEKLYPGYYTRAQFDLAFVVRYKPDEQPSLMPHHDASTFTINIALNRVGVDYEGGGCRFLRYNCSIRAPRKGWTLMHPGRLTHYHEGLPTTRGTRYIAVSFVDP
As to the kind of experiment: enzyme test, hydroxylation of insufficiently hydroxylated collagen by lysyl hydroxylase (cell-free). In kind it is biochemical.
Excerpt: as §1, §2, §3

Another assay relates to collagen biosynthesis. Briefly: inhibiting effect in cell culture. The class given is cell-based. The settings on record: read-out: DI50 cell culture.
Excerpt: as §2, §3

Where [1] appears, read: concentration at which the enzyme reaction is inhibited by 50%, first part of Table, read-out: DI50 propyl-hydroxylase.
Where [2] appears, read: concentration at which the enzyme reaction is inhibited by 50%, first part of Table, read-out: DI50 lysylhydroxylase.
Where [3] appears, read: second part of Table, P, read-out: DI50 P.circle.
Setting [4] is: second part of Table, column L (circled), read-out: DI50 L.circle.

pIC50: −log10 of the molar value. Read-outs that look alike come from different tables or passages of the source.

Sequence of prolyl hydroxylase (P13674 18-534): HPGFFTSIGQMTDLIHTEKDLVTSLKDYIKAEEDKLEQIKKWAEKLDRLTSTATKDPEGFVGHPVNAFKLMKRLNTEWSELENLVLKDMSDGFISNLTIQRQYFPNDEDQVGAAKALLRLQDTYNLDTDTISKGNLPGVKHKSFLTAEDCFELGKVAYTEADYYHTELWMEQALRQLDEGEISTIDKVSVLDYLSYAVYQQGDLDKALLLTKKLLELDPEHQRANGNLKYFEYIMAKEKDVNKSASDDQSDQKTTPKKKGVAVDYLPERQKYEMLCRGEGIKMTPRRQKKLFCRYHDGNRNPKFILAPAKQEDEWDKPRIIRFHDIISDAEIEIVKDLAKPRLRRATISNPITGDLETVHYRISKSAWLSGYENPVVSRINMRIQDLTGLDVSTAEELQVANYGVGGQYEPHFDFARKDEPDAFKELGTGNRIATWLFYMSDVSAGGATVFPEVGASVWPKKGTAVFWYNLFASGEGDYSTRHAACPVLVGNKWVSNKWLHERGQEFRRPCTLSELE
Sequence of prolyl hydroxylase (P07237 18-508 partner): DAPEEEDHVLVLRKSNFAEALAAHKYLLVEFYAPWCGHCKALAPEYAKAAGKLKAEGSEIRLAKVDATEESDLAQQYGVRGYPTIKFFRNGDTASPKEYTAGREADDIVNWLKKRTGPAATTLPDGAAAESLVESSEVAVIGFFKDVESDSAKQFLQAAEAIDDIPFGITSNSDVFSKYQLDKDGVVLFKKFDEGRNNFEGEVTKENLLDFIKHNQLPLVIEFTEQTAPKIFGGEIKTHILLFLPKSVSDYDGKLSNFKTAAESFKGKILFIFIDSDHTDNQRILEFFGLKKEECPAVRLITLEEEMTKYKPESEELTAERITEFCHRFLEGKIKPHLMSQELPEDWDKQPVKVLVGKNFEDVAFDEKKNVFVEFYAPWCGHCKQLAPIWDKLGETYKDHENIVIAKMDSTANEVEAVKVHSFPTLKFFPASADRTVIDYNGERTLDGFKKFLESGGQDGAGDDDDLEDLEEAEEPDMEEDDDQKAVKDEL

Turning to `Cc1ccc(O)c(-c2nc(C(=O)O)cs2)c1`, the pIC50 on prolyl hydroxylase (setting [1]) is 4.38; on lysyl hydroxylase (setting [2]) it was 4.17.
`O=C(O)c1csc(-c2cc(Cl)c3ccccc3c2O)n1`: the pIC50 at prolyl hydroxylase (setting [3]) was 4.55; at lysyl hydroxylase (setting [4]), 4.50.
On to `O=C(O)[C@@H]1CSC(c2ccccc2O)N1` (some centres unmarked), for which the pIC50 at prolyl hydroxylase (setting [1]) and at lysyl hydroxylase (setting [2]) was 4.55 each time.
As to `O=C(O)C1CSC(c2ccccc2O)=N1` (centres unmarked), the pIC50 was 4.70 at prolyl hydroxylase (setting [1]) and 4.55 at lysyl hydroxylase (setting [2]).
For `Nc1ccc(O)c(-c2nc(C(=O)O)cs2)c1`, the pIC50 on prolyl hydroxylase (setting [3]) was 5.25; on lysyl hydroxylase (setting [4]) it was 4.54.
For `Cc1ccc(O)c(-c2nc(C(=O)O)c(-c3ccccc3)s2)c1` the same measures were 4.59 and 4.47.
As to `O=C(O)C1CSC(c2ccc(O)cc2O)=N1` (centres unmarked), the pIC50 at prolyl hydroxylase (setting [1]) was 4.59; on lysyl hydroxylase (setting [2]), 4.80.
Turning to `Cc1ccc(O)c(C2=NC(C(=O)O)CS2)c1` (centres unmarked), the pIC50 on prolyl hydroxylase (setting [1]) was 4.55; on lysyl hydroxylase (setting [2]), 4.55; in the assay on collagen biosynthesis it was 4.47.
Take `O=C(O)[C@@H]1CSC(c2cc(Cl)cc(Cl)c2O)N1` (some centres unmarked): the pIC50 at prolyl hydroxylase (setting [1]) and on lysyl hydroxylase (setting [2]) was 4.00 to 4.30 each time.
For `O=C(O)c1nc(-c2ccc(O)cc2O)sc1-c1ccccc1`, the pIC50 at prolyl hydroxylase (setting [3]) is 4.57; at lysyl hydroxylase (setting [4]), 4.68.
Consider `Cc1ccc(O)c(-c2nc(C(=O)O)c(C(=O)O)s2)c1`, for which the figures for the pIC50 on prolyl hydroxylase (setting [3]) and on lysyl hydroxylase (setting [4]) were 4.17 and 3.84, respectively.
As to `O=C(O)[C@@H]1CSC(c2cc([N+](=O)[O-])ccc2O)N1` (some centres unmarked), the pIC50 on prolyl hydroxylase (setting [1]) and on lysyl hydroxylase (setting [2]) was 4.00 to 4.30 throughout.
Turning to `O=C(O)c1csc(-c2cc(Cl)ccc2O)n1`, the pIC50 is 4.15 on prolyl hydroxylase (setting [3]) and 3.73 at lysyl hydroxylase (setting [4]).
With `O=C(O)C1CSC(c2cc(Cl)ccc2O)=N1` (centres unmarked), the figures for the pIC50 at prolyl hydroxylase (setting [1]), on lysyl hydroxylase (setting [2]) and in the assay with collagen biosynthesis were 4.80, 4.92 and 4.77, respectively.
Turning to `O=C(O)[C@@H]1CSC(c2cc(Br)cc(Br)c2O)N1` (some centres unmarked), the pIC50 on prolyl hydroxylase (setting [1]) was 4.00 to 4.30; at lysyl hydroxylase (setting [2]), 5.00.
